# Marks after values point to notes of the source that are not given here.
# Assays:
# rabbit ear acne model [1] = assay: Rabbit ear acne model: macroscopic observation and histological grading; assay type: in vivo, New Zealand rabbits; details: right ear, 10 per group; for number of rabbits with acne histological grading 2+: Grade 2; for number of rabbits with acne histological grading —: Level 0, without acne; for number of rabbits with acne histological grading 1+: Level 1; for number of rabbits with acne histological grading 3+: Level 3
# From the text: (§1) (1) Preparation method of treatment cream: The excipient matrix components included methyl silicone oil (15%), stearic acid (6%), white vaseline (5%), liquid paraffin (5%), octadecanol (5%), glycerin (20%), alkyl aryl polyglycol ether (1%), fatty alcohol polyoxyethylene ether (1%), […] (1%), ethyl paraben (0.1%), distilled water (about 31-55%), and mixed with appropriate amount of CLY series compounds to form a mixed emulsion. The emulsion matrix used in this embodiment refers to the matrix component after the active ingredient was removed from the emulsion.
# (2) Positive therapeutic drug: 0.1% adapalene gel (Trade name: Differin, produced by Laboratoires Galderma, France).
# (§2) New Zealand rabbits were, according to weights, randomly divided into the model control group (applied cream matrix), positive treatment group (applied Differin on the skin), CLY-1 external treatment group (0.25% CLY-1 cream on the skin), CLY-2 external treatment group (0.25% CLY-2 cream on the skin), CLY-3 external treatment group (0.25% CLY-3 cream on the skin), CLY-4 external treatment group (0.25% CLY-4 cream on the skin) CLY-8 external treatment group (0.25% CLY-8 cream on the skin), CLY-9 external treatment group (0.25% CLY-9 cream on the skin), CLY-11 external treatment group (0.25% CLY-11 cream on the skin), CLY-19 external treatment group (0.25% CLY-19 cream on the skin), CLY-36 external treatment group (0.25% CLY-36 cream on the skin); CLY-1 intravenous injection group (1 mg/kg·d), CLY-2 intravenous injection group (1 mg/kg·d), CLY-3 intravenous injection group (1 mg/kg·d), CLY-4 intravenous injection group (1 mg/kg·d), CLY-8 intravenous injection group (1 mg/kg·d), CLY-9 intravenous injection group (1 mg/kg·d), CLY-11 intravenous injection group (1 mg/kg·d), CLY-19 intravenous injection group (1 mg/kg·d), and CLY-36 intravenous injection group (1 mg/kg·d), with 10 in each group. Took the inner side of the rabbit's right ear for depilation treatment as the observation area, and the inner side of the left ear of all rabbits as their own negative control, and applied 95% alcohol. The inner side of the right ear of the model group and the treatment group were both coated with 2% coal tar (Alfa Aesar China, which used 95% alcohol to prepare 2% coal tar solution), and evenly applied the sterile cotton swab to the opening of the ear duct on the inner side of the rabbit's ear within the range of about 2 cm×2 cm, once a day, 0.5 mL each time, and wiped the previous application site with warm water for 14 consecutive days to establish the acne micro-pigmentation model. Visually observed the changes of local skin, including ear thickness, hardness, roughness, and whether there was a black angle plug at the hair follicle mouth. 18 hours after the last application, the sample was sacrificed and skin was taken. The skin tissue was taken from the application site by using a 5 mm punch, fixed with 10% formaldehyde, embedded in paraffin, and stained with HE. The histopathological observation and analysis were carried out.
# The histological grading criteria of the acne model: 3 grades according to histological grade. […] The tight keratin embolism in the hair follicles causes severe expansion of the hair follicles, obvious hyperplasia of the sebaceous duct epithelium, skin bulges and scars, and some sebaceous glands degenerate “3±”.
# (§3) SPSS16 software was used for statistical analysis. The paired t-test was used for the left and right self-contrast, and the t-test was used for the comparison between the groups, P<0.05 was statistically significant.
# rabbit ear acne model [2] = assay: Rabbit ear acne model: epidermal thickness, hair follicle area, sebaceous gland diameter; assay type: in vivo, New Zealand rabbits; details: rabbit right ear
# From the text: as §2
# The histopathological changes were observed under the microscope, and the thickness of five different epidermises on a slice was measured with the Biomias99 image analysis system, and the average value was calculated; Detected the area of the two hair follicles and the diameter of the four sebaceous glands with the same position and the most complete structure in the four sections, calculated their average values, and then subtracted the data of the left and right external auditory canal of the rabbits in each group to obtain the difference in the thickness of the left and right ear epidermis, the difference in the area of the hair follicles and the difference in the diameter of the sebaceous glands.
# as §3
# rat scar model = assay: Rat scar model (skin wound healing); assay type: in vivo; details: rat back wound 2.4 cm; 0.5% cream on the skin
# From the text: as §1, with “1.1” for “(1)”, “alkylaryl” for “alkyl aryl”
# 1.2 Grouping and modeling of experimental animals: SPF grade male rats, weighing (210±28) g, from the Animal Center of Nanyi University. The rats were numbered according to their body weight and using the random array method, samples were divided into the model control group (applied cream matrix), CLY-1 treatment group (applied 0.5% CLY-1 cream on the skin), CLY-2 treatment group (applied 0.5% CLY-2 cream on the skin), CLY-3 treatment group (0.5% CLY-3 cream on the skin), CLY-4 treatment group (0.5% CLY-4 cream on the skin), CLY-8 treatment group (0.5% CLY-8 cream on the skin), CLY-11 treatment group (0.5% CLY-11 cream on the skin) CLY-19 treatment group (0.5% CLY-19 cream on the skin), CLY-36 treatment group (0.5% CLY-36 cream on the skin), and CLY-39 treatment group (0.5% CLY-39 cream on the skin), 6 in each group. Rats in each group were anesthetized by intraperitoneal injection of 2% pentobarbital sodium (120 mg/kg) and fixed on the operating table, and then chose a piece of 4×5 cm of intact skin on the back, 8% sodium sulfide hair removal, used tissue scissors to cut a wound with a diameter of 2.4 cm and a depth of muscle fascia at the hair removal site, and damage part of the muscle surface fascia. Animals were kept in separate cages to prevent rats from biting and licking. Applied 2% iodine tincture daily to the wound for routine disinfection, and observed the wound healing of rats.
# The wounds were routinely disinfected every day, and the wounds of rats were observed on the 1st, 3rd, 5th, 7th, 12th, and 20th days. […] On the 12th day, the wounds in each treatment group had basically recovered, while the model group still had about 0.5 cm2 of wounds. By the 20th day, the wounds in each group had recovered, and the model control group left obvious scars, while each treatment group only left different amounts of pigmentation.
# [3] = external use (0.25% CLY cream; positive: Differin)
# [4] = intravenous injection 1 mg/kg·d
Structure (SMILES),number of rabbits with acne histological grading 2+ (rabbit ear acne model [1]; [3]),number of rabbits with acne histological grading 2+ (rabbit ear acne model [1]; [4]),number of rabbits with acne histological grading — (rabbit ear acne model [1]; [3]),number of rabbits with acne histological grading — (rabbit ear acne model [1]; [4]),number of rabbits with acne histological grading 1+ (rabbit ear acne model [1]; [3]),number of rabbits with acne histological grading 1+ (rabbit ear acne model [1]; [4]),number of rabbits with acne histological grading 3+ (rabbit ear acne model [1]; [3]),number of rabbits with acne histological grading 3+ (rabbit ear acne model [1]; [4]),epidermal thickness (rabbit ear acne model [2]; [3]) [mm],hair follicle area (rabbit ear acne model [2]; [3]),sebaceous gland diameter (rabbit ear acne model [2]; [3]) [mm],epidermal thickness (rabbit ear acne model [2]; [4]) [mm],hair follicle area (rabbit ear acne model [2]; [4]),sebaceous gland diameter (rabbit ear acne model [2]; [4]) [mm],skin wound healing and scar formation (rat scar model)
O=C(c1ccc(-c2ccccc2-c2nnn[nH]2)cc1)N(c1ncccc1Cl)[C@@H]1CCCNC1 [CLY-19],3,1,5,8,2,1,0,0,0.2365 ± 0.0181,0.2766 ± 0.0953* mm^2,0.0795 ± 0.0398,0.2276 ± 0.0165,0.2235 ± 0.0843* mm^2,0.0523 ± 0.0316,significantly promote skin wound healing and reduce scar formation
O=C(c1ccc(-c2ccccc2Cl)cc1)N(c1ncccc1Cl)[C@@H]1CCCNC1 [CLY-36],4,2,5,7,1,1,0,0,0.2387 ± 0.0186,0.2773 ± 0.0945* mm^2,0.0805 ± 0.0406,0.2282 ± 0.0171,0.2241 ± 0.0846* mm^2,0.0536 ± 0.0319,significantly promote skin wound healing and reduce scar formation
Nc1ccccc1-c1ccc(C(=O)N(c2ncccc2Cl)[C@@H]2CCCNC2)cc1 [CLY-39],1,1,6,7,3,2,0,0,0.2312 ± 0.0152,0.2315 ± 0.0662* mm^2,0.0716 ± 0.0323,0.2056 ± 0.0156,0.2056 ± 0.0762* mm^2,0.0531 ± 0.0306,significantly promote skin wound healing and reduce scar formation

# — patent US20240300945A1, “CLY SERIES COMPOUND, PREPARATION METHOD THEREFOR AND USE THEREOF IN PREPARATION OF DRUGS” (NANJING WELLBEST PHARMACEUTICAL CO., LTD, priority 2021, published 2024)
